Data published in US10918645B2 (LIFEARC, priority 2016, dated 2021).

Columns and labels:
Type in all cases: biochemical
Conditions in all cases: 1 μM inhibitor concentration
PDK1 = PDK1 (Homo sapiens (Human), UniProt O15530); assay: PDK1 kinase selectivity assay
Experimental: PDK1 (5-20 mU diluted in 50 mM Tris pH 7.5, 0.05% b-mercaptoethanol, 1 mg/ml BSA) is assayed against PDKtide ([…]-[…]) in a final volume of 25.5 μl containing 50 mM Tris pH 7.5, 0.05% b-mercaptoethanol, 100 μM substrate peptide, 10 mM magnesium acetate and 0.02 mM [33P-g-ATP](50-1000 cpm/pmole) and incubated for 30 min at room temperature Assays are stopped by addition of 5 μl of 0.5 M (3%) orthophosphoric acid and then harvested onto P81 Unifilter plates with a wash buffer of 50 mM orthophosphoric acid.

MST4 = MST4 (Homo sapiens (Human), UniProt Q9P289); assay: MST4 kinase selectivity assay
Experimental: 5-20 mU of MST4 (diluted in 50 mM Tris (pH 7.5), 0.1 mM EGTA) is assayed against MBP in a final volume of […] containing 50 mM Tris (pH 7.5), 0.1 mM EGTA, 0.33 mg/ml MBP, 10 mM magnesium acetate and 0.02 mM [33P-g-ATP](500-1000 cpm/pmole) and incubated for 30 mins at room temperature. Assays are stopped by addition of […] of 0.5M (3%) orthophosphoric acid. Assays are harvested onto P81 Unifilter plates using a wash buffer of 50 mM orthophosphoric acid.

CHK1 = CHK1 (Homo sapiens (Human), UniProt O14757); assay: CHK1 kinase selectivity assay
Experimental: CHK1 (5-20 mU diluted in 20 mM MOPS pH 7.5, 1 mM EDTA, 0.1% b-mercaptoethanol, 0.01% Brij-35, 5% glycerol, 1 mg/ml BSA) is assayed against CHKtide substrate peptide ([…]) in a final volume of 25.5 μl containing 8 mM MOPS pH 7.0, 0.2 mM EDTA, 200 μM CHKtide, 10 mM magnesium acetate and 0.02 mM [33P-g-ATP](50-1000 cpm/pmole) and incubated for 30 min at room temperature Assays are stopped by addition of 5 μl of 0.5 M (3%) orthophosphoric acid and then harvested onto P81 Unifilter plates with a wash buffer of 50 mM orthophosphoric acid.

PKD1 = PKD1 (Homo sapiens (Human), UniProt Q15139); assay: PKD1 kinase selectivity assay
Experimental: PKD1 (5-20 mU diluted in 50 mM Tris pH 7.5, 0.1 mM EGTA, 0.1% b-mercaptoethanol, 1 mg/ml BSA) is assayed substrate peptide ([…]) in a final volume of 25.5 μl containing 50 mM Tris pH 7.5, 0.05% b-mercaptoethanol, 30 μM substrate peptide, 10 mM magnesium acetate and 0.05 mM [33P-g-ATP] (50-1000 cpm/pmole) and incubated for 30 min at room temperature. Assays are stopped by addition of 5 μl of 0.5 M (3%) orthophosphoric acid and then harvested onto P81 Unifilter plates with a wash buffer of 50 mM orthophosphoric acid.

BTK = BTK (Homo sapiens (Human), UniProt Q06187); assay: BTK kinase selectivity assay
Experimental: BTK (5-20 mU diluted in 50 mM Tris pH 7.5, 0.1 mM EGTA, 1 mg/ml BSA) is assayed against a substrate peptide ([…]) in a final volume of 25.5 μl containing 50 mM Tris pH 7.5, 300 µM substrate peptide, 10 mM magnesium acetate and 0.05 mM [33P-g-ATP] (50-1000 cpm/pmole) and incubated for 30 min at room temperature. Assays are stopped by addition of 5 μl of 0.5 M (3%) orthophosphoric acid and then harvested onto P81 Unifilter plates with a wash buffer of 50 mM orthophosphoric acid.

ULK2 = ULK2 (Homo sapiens (Human), UniProt Q8IYT8); assay: ULK2 kinase selectivity assay
IRR = IRR (Homo sapiens (Human), UniProt P14616); assay: IRR kinase selectivity assay
Experimental: 5-20 mU of IRR (diluted in 50 mM Hepes (pH 7.5), 0.1 mM EGTA) is assayed against MBP in a final volume of 25.5 μl containing 50 mM Hepes (pH 7.5), 0.1 mM EGTA, 0.33 mg/ml MBP, 10 mM magnesium acetate and 0.005 mM [33P-g-ATP](500-1000 cpm/pmole) and incubated for 30 mins at room temperature. Assays are stopped by addition of 5 μl of 0.5M (3%) orthophosphoric acid. Assays are harvested onto P81 Unifilter plates using a wash buffer of 50 mM orthophosphoric acid.

PKA = PKA (Homo sapiens (Human), UniProt P17612); assay: PKA kinase selectivity assay
Experimental: PKA (5-20 mU diluted in 20 mM MOPS pH 7.5, 1 mM EDTA, 0.01% Brij35, 0.1% b-mercaptoethanol, 1 mg/ml BSA) is assayed against Kemptide (LRRASLG) in a final volume of 25.5 μl containing 8 mM MOPS pH 7.5, 0.2 mM EDTA, 30 μM substrate peptide, 10 mM magnesium acetate and 0.005 mM [33P-g-ATP] (50-1000 cpm/pmole) and incubated for 30 min at room temperature. Assays are stopped by addition of 5 μl of 0.5 M (3%) orthophosphoric acid and then harvested onto P81 Unifilter plates with a wash buffer of 50 mM orthophosphoric acid.

S6K1 = S6K1 (Homo sapiens (Human), UniProt P23443); assay: S6K1 kinase selectivity assay
Experimental: S6K1/P70 S6K (5-20 mU diluted in 20 mM MOPS pH 7.5, 1 mM EDTA, 0.01% Brij35, 5% glycerol, 0.1% b-mercaptoethanol, 1 mg/ml BSA) is assayed against substrate peptide ([…]) in a final volume of 25.5 μl containing 8 mM MOPS pH 7.0, 0.2 mM EDTA, 0.1 mM substrate peptide, 10 mM magnesium acetate and 0.02 mM [33P-g-ATP] (50-1000 cpm/pmole) and incubated for 30 min at room temperature. Assays are stopped by addition of 5 μl of 0.5 M (3%) orthophosphoric acid and then harvested onto P81 Unifilter plates with a wash buffer of 50 mM orthophosphoric acid.

CHK1, sequence (O14757 whole entry, species assumed): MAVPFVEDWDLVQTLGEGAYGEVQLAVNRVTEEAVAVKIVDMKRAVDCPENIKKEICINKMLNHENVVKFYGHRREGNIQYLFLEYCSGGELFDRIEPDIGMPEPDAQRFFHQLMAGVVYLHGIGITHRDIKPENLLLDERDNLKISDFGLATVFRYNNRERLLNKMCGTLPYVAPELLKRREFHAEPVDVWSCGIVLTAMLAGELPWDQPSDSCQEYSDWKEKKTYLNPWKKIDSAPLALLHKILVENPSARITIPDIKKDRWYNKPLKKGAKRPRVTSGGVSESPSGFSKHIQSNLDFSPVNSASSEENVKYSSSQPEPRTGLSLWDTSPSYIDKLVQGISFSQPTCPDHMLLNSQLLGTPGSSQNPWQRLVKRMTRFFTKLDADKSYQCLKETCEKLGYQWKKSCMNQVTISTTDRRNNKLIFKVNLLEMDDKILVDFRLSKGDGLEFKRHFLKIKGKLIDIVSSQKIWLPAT
PDK1, sequence (O15530 whole entry): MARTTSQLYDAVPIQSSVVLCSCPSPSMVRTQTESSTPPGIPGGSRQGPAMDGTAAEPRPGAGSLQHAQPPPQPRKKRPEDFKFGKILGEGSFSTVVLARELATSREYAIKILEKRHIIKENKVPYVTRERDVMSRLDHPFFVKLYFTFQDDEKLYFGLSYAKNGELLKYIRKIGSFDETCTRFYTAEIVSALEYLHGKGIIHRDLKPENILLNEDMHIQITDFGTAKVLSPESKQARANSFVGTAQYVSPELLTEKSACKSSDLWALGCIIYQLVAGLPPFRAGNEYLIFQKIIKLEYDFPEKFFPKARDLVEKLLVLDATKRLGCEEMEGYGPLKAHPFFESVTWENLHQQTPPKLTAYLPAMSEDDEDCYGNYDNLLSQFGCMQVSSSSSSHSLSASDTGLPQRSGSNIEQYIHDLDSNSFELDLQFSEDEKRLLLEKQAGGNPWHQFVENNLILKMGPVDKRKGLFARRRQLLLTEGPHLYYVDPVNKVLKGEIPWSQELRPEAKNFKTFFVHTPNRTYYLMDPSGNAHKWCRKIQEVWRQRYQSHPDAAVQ
IRR, sequence (P14616 27-1297, species assumed): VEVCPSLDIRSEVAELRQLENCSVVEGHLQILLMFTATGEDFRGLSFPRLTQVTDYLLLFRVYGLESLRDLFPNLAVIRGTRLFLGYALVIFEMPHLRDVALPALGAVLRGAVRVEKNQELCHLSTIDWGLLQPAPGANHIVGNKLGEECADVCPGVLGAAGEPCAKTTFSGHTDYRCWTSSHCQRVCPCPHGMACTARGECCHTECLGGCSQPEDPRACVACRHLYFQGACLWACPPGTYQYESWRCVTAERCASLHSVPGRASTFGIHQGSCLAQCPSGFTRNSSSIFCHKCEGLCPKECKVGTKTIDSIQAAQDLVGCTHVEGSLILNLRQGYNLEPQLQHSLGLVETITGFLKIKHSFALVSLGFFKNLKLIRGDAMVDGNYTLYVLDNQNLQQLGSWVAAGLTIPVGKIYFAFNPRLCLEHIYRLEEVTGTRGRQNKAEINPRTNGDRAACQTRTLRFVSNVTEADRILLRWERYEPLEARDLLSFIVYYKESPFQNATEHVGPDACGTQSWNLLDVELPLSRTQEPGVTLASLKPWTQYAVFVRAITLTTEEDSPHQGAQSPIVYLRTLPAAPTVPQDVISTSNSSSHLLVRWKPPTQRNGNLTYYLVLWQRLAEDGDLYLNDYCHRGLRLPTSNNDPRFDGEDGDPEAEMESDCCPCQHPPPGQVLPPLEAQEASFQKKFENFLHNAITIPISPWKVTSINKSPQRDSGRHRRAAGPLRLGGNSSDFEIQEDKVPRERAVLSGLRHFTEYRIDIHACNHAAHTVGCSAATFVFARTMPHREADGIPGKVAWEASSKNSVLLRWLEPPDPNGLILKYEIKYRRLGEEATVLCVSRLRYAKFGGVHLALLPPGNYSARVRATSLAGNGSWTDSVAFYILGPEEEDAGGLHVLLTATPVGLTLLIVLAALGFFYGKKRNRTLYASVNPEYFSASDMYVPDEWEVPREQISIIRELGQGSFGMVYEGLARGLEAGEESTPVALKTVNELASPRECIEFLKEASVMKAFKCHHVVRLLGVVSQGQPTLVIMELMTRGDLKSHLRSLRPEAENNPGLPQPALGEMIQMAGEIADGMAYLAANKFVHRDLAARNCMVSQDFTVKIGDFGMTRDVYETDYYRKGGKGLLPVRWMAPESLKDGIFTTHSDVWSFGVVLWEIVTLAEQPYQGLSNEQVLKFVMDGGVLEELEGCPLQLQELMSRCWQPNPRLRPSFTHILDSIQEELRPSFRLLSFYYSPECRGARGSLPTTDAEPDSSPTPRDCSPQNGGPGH
MST4, sequence (Q9P289 whole entry, species assumed): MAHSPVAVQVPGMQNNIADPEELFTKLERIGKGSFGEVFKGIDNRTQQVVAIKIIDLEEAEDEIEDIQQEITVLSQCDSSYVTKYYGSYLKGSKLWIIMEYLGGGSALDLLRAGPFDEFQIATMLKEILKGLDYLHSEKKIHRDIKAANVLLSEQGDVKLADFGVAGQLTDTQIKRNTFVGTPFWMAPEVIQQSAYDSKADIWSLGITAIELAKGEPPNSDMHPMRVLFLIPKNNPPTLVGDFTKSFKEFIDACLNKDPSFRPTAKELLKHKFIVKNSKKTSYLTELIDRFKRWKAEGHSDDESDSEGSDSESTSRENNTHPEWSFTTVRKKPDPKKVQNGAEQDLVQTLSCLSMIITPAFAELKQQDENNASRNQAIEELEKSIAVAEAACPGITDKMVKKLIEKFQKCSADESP
BTK, sequence (Q06187 whole entry, species assumed): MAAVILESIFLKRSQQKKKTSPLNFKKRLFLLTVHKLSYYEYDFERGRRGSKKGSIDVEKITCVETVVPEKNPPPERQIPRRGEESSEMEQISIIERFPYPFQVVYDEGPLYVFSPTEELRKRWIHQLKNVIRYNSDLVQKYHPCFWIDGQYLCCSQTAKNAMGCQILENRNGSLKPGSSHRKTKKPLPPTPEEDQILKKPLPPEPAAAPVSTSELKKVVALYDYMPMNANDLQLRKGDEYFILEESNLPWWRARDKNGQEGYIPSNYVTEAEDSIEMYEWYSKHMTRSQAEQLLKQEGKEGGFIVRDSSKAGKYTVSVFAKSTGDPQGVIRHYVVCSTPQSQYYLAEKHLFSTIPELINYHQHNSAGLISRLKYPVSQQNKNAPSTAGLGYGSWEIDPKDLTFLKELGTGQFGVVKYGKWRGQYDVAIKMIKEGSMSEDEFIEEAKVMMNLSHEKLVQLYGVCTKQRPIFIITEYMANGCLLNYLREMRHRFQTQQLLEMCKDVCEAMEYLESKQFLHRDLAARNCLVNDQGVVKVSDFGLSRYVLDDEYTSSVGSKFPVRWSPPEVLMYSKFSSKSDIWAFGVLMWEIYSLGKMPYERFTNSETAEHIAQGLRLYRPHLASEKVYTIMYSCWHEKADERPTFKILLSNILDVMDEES
S6K1, sequence (P23443 whole entry, species assumed): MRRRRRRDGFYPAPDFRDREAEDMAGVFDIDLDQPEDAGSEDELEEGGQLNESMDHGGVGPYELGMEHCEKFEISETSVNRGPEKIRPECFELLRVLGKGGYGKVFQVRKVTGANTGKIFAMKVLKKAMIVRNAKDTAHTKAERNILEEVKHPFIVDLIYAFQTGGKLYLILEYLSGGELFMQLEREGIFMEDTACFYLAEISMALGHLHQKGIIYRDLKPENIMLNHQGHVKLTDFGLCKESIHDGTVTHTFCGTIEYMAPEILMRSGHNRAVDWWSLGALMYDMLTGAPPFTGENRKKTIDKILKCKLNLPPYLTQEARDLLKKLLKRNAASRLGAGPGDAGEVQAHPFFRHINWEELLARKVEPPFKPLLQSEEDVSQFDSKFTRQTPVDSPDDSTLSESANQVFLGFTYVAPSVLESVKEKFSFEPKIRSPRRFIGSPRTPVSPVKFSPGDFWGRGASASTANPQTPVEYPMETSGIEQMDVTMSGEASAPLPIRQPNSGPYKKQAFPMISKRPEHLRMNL
PKD1, sequence (Q15139 whole entry): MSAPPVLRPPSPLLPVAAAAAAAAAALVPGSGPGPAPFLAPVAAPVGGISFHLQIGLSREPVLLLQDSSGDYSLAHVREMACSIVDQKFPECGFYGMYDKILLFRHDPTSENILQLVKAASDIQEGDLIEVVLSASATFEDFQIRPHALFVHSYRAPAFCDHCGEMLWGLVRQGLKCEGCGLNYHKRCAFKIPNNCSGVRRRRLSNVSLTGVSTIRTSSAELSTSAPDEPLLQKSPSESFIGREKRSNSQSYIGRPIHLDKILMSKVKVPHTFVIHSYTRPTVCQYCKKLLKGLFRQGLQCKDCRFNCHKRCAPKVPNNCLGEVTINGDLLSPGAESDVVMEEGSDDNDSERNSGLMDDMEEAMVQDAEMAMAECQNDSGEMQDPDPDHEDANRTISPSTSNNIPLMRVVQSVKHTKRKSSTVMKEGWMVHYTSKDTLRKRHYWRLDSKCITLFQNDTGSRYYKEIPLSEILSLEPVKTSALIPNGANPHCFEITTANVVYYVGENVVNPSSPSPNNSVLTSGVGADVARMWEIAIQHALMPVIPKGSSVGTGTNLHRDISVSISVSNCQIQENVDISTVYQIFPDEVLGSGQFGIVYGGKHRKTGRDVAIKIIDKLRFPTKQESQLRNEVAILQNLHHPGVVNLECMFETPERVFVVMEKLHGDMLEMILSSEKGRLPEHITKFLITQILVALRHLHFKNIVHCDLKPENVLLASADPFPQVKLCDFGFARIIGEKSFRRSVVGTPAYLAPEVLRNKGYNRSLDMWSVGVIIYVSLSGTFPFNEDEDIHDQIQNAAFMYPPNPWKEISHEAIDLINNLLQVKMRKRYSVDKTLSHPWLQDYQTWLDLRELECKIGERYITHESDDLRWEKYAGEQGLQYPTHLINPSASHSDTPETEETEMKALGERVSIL

Structure (SMILES) | percentage inhibition of PDK1 (PDK1) [percentage] | percentage inhibition of MST4 (MST4) [percentage] | percentage inhibition of CHK1 (CHK1) [percentage] | percentage inhibition of PKD1 (PKD1) [percentage] | percentage inhibition of BTK (BTK) [percentage] | percentage inhibition of ULK2 (ULK2) [percentage] | percentage inhibition of IRR (IRR) [percentage] | percentage inhibition of PKA (PKA) [percentage] | percentage inhibition of S6K1 (S6K1) [percentage]
c1cc2[nH]nc3c2c(n1)N(C1CCC1)CCC3 [Example 22, 6-cyclobutyl-6,7,8,9-tetrahydro-2H-1,2,5,6-tetraazabenzo[cd]azulene] | 7 | 6 | 2 | 20 | 0 | 12 | 8 | 0 | 0
c1cc2[nH]nc3c2c(n1)N(C1CCCC1)CCC3 [Example 23, 6-cyclopentyl-6,7,8,9-tetrahydro-2H-1,2,5,6-tetraazabenzo[cd]azulene] | 0 | 0 | 0 | 9 | 0 | 1 | 4 | 0 | 0
c1cc2[nH]nc3c2c(n1)N(C1CCOCC1)CCC3 [Example 29, 6-(tetrahydro-2H-pyran-4-yl)-6,7,8,9-tetrahydro-2H-1,2,5,6-tetraazabenzo[cd]azulene] | 2 | 1 | 0 | 3 | 0 | 7 | 6 | 0 | 2
CN1CCC(N2Cc3ccccc3-c3n[nH]c4ccnc2c34)CC1 [Example 55] | 42 | 0 | 42 | 73 | 0 | 31 | 18 | 0 | 17
CC(C)n1ncc2c1CN(C1CCN(C)CC1)c1nccc3[nH]nc-2c13 [Example 68] | 21 | 0 | 28 | 46 | 0 | 10 | 1 | 0 | 0
